Source: patent publication US20050020654A1, “Novel PPAR agonists, pharmaceutical compositions and uses thereof” (priority 2003, published 2005)
Read-outs that look alike come from different tables or passages of the source. Blank lines part the entries; values can stand above or below the compound they belong to.

Tests used:
[1] = molecular target: T1, PPARγ (Homo sapiens, UniProt P37231); experiment: PPARγ transactivation assay (luciferase reporter) in transfected CV-1 cells; type: cell-based
T1 construct: expressed in transfected cells; host or cells: CV-1 cells (ATCC CCL-70)
T1 sequence (P37231 1-505): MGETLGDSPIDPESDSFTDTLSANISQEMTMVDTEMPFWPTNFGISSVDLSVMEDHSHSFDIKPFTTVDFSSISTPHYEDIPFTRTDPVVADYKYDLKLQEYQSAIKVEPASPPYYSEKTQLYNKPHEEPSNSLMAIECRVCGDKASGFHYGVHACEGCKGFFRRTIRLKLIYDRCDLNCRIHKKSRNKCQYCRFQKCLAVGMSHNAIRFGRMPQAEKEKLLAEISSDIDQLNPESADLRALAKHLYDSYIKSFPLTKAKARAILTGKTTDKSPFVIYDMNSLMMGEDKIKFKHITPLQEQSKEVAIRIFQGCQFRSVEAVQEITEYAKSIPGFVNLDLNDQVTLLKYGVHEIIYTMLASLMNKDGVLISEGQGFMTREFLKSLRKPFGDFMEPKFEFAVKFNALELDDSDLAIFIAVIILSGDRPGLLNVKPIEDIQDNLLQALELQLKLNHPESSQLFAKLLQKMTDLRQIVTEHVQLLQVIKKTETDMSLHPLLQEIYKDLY
Experimental: PPARγ activity was determined by transactivation assays in CV-1 cells (CCL-70 line from American Type Culture Collection (ATCC), Bethesda, Md.) transfected using the GenePorter transfection reagent (Gene Therapy Systems, San Diego, Calif.) to deliver 200 ng of a PPARγ expression plasmid and 1 μg of a luciferase reporter plasmid and 400 ng pCMVSport b-gal (Gibco, Grand Island, N.J.) as an internal control. 24 hr post-transfection, cells were treated with varying concentrations of the test compounds of this invention, and incubated for an additional 24 hr. Rosiglitazone and pioglitazone, a known PPARγ full agonist, and telmisartan, a known ARB and PPARγ partial agonist (Benson et al. Hypertension (2004) in press) are used as controls. Cell extracts were assayed for luciferase and β-galactosidase activity using Promega (Madison, Wis.) assay systems. All treatments were performed in triplicate, and normalized for β-galactosidase activity. Agonist concentrations yielding half maximal activation (EC50 values) were calculated using GraphPad Prism version 3.03 (GraphPad Software, Inc., San Diego, Calif.).

[2] = type: in vivo, human
Experimental: A person with hypertension, hypertriglyceridemia, and type 2 diabetes was selected for therapy. […] The patient is taking another medication for type 2 diabetes but the dose of this medication is held constant throughout the trial. The patient is given telmisartan at an oral dose of 80 mg/day. […] The oral dose of telmisartan (Micardis®) is then increased to 160 mg/day. […] The telmisartan (Micardis®) therapy is continued according to the judgment of the clinician in order to maintain the improved control of the patient's blood pressure and their type 2 diabetes.

[3] = molecular target: T1, PPARγ; conditions: Benson et al. Hypertension (2004) in press; cited from earlier work
[4] = type: in vivo
Experimental: An obese person (BMI: 34.4 kg/m2, waist circumference: 51 inches) with untreated hypertension, pre-diabetes and the metabolic syndrome was given telmisartan (Micardis®), 80 mg/day, for treatment of high blood pressure. […] The patient has the metabolic syndrome as defined by the National Cholesterol Education Program (NCEP). The metabolic syndrome is associated with a 5-9 fold increase in the risk for developing type 2 diabetes and a 2-3 fold increase risk in cardiovascular mortality. […] After 5 weeks on valsartan (week 15), their glucose, insulin, triglyceride levels, and HOMA-IR score increased, consistent with a reversal in the improved insulin resistance obtained with telmisartan (Table 1). Valsartan was discontinued and they were switched back to telmisartan.

[5] = oral 80 mg/day, after three weeks
[6] = oral 160 mg/day, after seven weeks

Compound: CCCc1nc2c(C)cc(Br)cc2n1CCOc1ccc(CC2SC(=O)NC2=O)cc1C(=O)O (stereo not drawn) [2-(2-(6-Bromo-4-methyl-2-propyl-1H-benzo[d]imidazol-1-yl)ethoxy)-5-((2,4-dioxothiazolidin-5-yl)methyl)benzoic acid]
PPAR-γ Fold activation ([1]; @ 0.1 uM): 3.8 x
PPAR-γ Fold activation ([1]; @ 1 μM): 10 x
PPAR-γ Fold activation ([1]; @ 10 μM): 15.5 x
PPAR-γ Fold activation ([1]; @ .01 uM): 1.7 x

Compound: CCCCC1=NC2(CCCC2)C(=O)N1Cc1ccc(-c2ccccc2-c2nnn[nH]2)cc1 [Irbesartan, reference compound]
PPARγ activation [1]: 2-3 fold

Compound: COC(=O)c1cc(CC2SC(=O)NC2=O)ccc1OCCn1c(CCCCC2CCCCC2)nc2ccccc21 (stereo not drawn) [Methyl 2-(2-(2-(4-cyclohexylbutyl)-1H-benzo[d]imidazol-1-yl)ethoxy)-5-((2,4-dioxothiazolidin-5-yl)methyl)benzoate]
PPAR-γ Fold activation ([1]; @ 0.1 uM): 2 x
PPAR-γ Fold activation ([1]; @ 1 μM): 24 x
PPAR-γ Fold activation ([1]; @ 10 μM): 34 x
PPAR-γ Fold activation ([1]; @ .01 uM): 1 x

Compound: CCCc1nc2c(C)cc(-c3nc4ccccc4n3C)cc2n1Cc1ccc(-c2ccccc2C(=O)O)cc1 [telmisartan]
HDL cholesterol [2, 5]: 50 mg/dL
blood pressure [2, 5]: 143/91
fasting glucose [2, 5]: 188 mg/dL
triglyceride [2, 5]: 281 mg/dL
HDL cholesterol [2, 6]: 60 mg/dL
blood pressure [2, 6]: 131/81
glucose level [2, 6]: 145 mg/dL
triglyceride level [2, 6]: 178 mg/dL
activation of PPARγ [3]: has been shown to activate PPARγ
activation of the receptor relative to maximum level of activity achieved by the full agonists pioglitazone and rosiglitazone [1]: 25%-30%
PPARγ activation ([1]; tested at concentrations 1-5 mM): 5-8 fold
blood pressure ([4]; 80 mg/day, throughout the observation period): normalized and remained normal
blood glucose, insulin and triglyceride concentrations ([4]; 80 mg/day, up to week 10): progressively decreased
insulin resistance, HOMA-IR score ([4]; 80 mg/day, up to week 10): improvement in insulin resistance
fluid retention, peripheral edema, pulmonary edema, or congestive heart failure on clinical examination ([4]; human, in vivo): no evidence of any increase
insulin resistance and triglycerides ([4]; switched back from valsartan, following 4 weeks (week 19)): again improved

Compound: CCCCC(=O)N(Cc1ccc(-c2ccccc2-c2nnn[nH]2)cc1)[C@H](C(=O)O)C(C)C [valsartan]
activation of PPARγ [3]: does not activate PPARγ
glucose, insulin, triglyceride levels, and HOMA-IR score ([4]; 160 mg/day, after 5 weeks (week 15), after switch from telmisartan): increased

Other lines, results leading:

PPAR-γ Fold activation ([1]; @ 0.1 uM): 3.1 x
PPAR-γ Fold activation ([1]; @ 1 μM): 32 x
PPAR-γ Fold activation ([1]; @ 10 μM): 41 x
PPAR-γ Fold activation ([1]; @ .01 uM): 1 x
Compound: CCCc1nc2c(C)cc(Br)cc2n1CCOc1ccc(CC2SC(=O)NC2=O)cc1C(=O)OC (stereo not drawn) [Methyl 2-(2-(6-bromo-4-methyl-2-propyl-1H-benzo[d]imidazol-1-yl)ethoxy)-5-((2,4-dioxothiazolidin-5-yl)methyl)benzoate]

PPAR-γ Fold activation ([1]; concentration not given): No activity
Compound: CCCc1nc2c(C)cc(-c3nc4ccccc4n3C)cc2n1Cc1ccc(-c2ccc(C(=O)O)cc2C(=O)O)cc1 [averysartan]

PPAR-γ Fold activation ([1]; @ 0.1 uM): 1 x
PPAR-γ Fold activation ([1]; @ 1 μM): 5 x
PPAR-γ Fold activation ([1]; @ 5 uM): 9 x
PPAR-γ Fold activation ([1]; @ 10 μM): 11 x
Compound: CCCc1nc2c(C)cc(-c3nc4ccccc4n3C)cc2n1Cc1ccc(-c2ccc(C(=O)OC)cc2C(=O)OC)cc1 [proaverysartan]

PPAR-γ Fold activation ([1]; @ 0.1 uM): 1.2 x
PPAR-γ Fold activation ([1]; @ 1 μM): 6.1 x
PPAR-γ Fold activation ([1]; @ 10 μM): 7.4 x
Compound: Methyl 5-((2,4-dioxothiazolidin-5-yl)methyl)-2-(2-(4-methyl-6-phenyl-2-propyl-1H-benzo[d]imidazol-1-yl)ethoxy)benzoate
